Laboratory results as given in article PMC5137160, “Optical imaging of MMP-12 active form in inflammation and aneurysm” (Scientific Reports, 2016).

Experiments:
Stability in PBS = type: physicochemical
Description: Probes 1, 2, 3 and control probe 4 were synthesized from phosphinic building blocks whose synthesis was previously reported. Briefly, the elongation of the peptide’s sequence as well as the incorporation of the phosphinic building blocks were performed on solid support using a standard Fmoc strategy. After cleavage from the support, pseudo peptide intermediates were purified and subsequently engaged in a coupling reaction with the appropriate dye-NHS ester. The identity and purity of each optical probe were confirmed by analytical HPLC, mass spectrometry analysis and NMR (for detailed protocols and analytical data see supplemental information). The stability of each probe was confirmed in phosphate buffered saline (PBS). Moreover, the stability of probe 3 and its control, probe 4 were evaluated by HPLC in mouse blood over a period of 4 hours at 37 °C.

ADAMTS-5 = target: T1, ADAMTS-5 (Homo sapiens, UniProt Q9UNA0); assay: Metalloprotease inhibition assay (Ki); type: biochemical
T1 sequence (Q9UNA0 262-930): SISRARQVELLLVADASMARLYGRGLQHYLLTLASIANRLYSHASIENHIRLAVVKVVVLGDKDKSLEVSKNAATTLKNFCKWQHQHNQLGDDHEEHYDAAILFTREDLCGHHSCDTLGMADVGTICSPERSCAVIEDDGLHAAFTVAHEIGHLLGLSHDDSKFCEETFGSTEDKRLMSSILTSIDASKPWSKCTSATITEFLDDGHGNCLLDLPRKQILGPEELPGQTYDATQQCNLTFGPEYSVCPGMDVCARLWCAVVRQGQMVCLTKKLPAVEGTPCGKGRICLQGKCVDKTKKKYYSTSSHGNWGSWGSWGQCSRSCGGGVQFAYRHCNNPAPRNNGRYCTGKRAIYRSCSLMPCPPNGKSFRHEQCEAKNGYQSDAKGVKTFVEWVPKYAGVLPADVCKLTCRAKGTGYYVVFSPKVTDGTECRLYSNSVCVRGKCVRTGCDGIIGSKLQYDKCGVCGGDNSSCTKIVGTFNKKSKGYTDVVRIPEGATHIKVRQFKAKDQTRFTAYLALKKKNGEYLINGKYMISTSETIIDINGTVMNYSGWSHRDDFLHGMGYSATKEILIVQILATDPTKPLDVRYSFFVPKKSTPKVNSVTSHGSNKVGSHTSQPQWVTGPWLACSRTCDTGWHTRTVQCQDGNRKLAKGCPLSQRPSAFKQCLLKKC

hMMP-12 = assay: MMP inhibition assay (Ki); type: biochemical, human
Description: (§1) Human MMP-8, -9, -12 and -13 were produced in the laboratory. Other MMPs were purchased from R&D Systems (Minneapolis, MN). MMP inhibition assays were carried out as previously described. Pro-MMPs were pre-activated by p-aminophenylmercuric acetate following the method described by R&D Systems. Titration experiments were carried out to determine active enzyme concentration for each MMP prior to the assay. For each probe, the percentage of inhibition was determined from five different concentrations in triplicates, chosen to reach a range of 20–80% inhibition. Ki values were determined using the method proposed by Horovitz and Leviski[45].

[1] = Blood clearance and biodistribution after intravenous administration in wild type mice; type: in vivo; details: 1 nmol intravenous, 30 and 60 minutes, compared to probe 1
Description: (§2) Fluorescent probes (one nmol in 100 μL saline) were administered through a jugular vein catheter under inhaled isoflurane anesthesia. Blood samples were collected at various time points after probe administration to monitor blood clearance. Animals were sacrificed at the indicated time points and various organs were harvested. Near-infrared fluorescence reflectance imaging was conducted using an IVIS Spectrum system (Caliper Life Science, Hopkinton, MA) with appropriate excitation (Ex) and emission (Em) filter sets (Ex/Em = 675/720 nm for probe 1 and Ex/Em = 745/800 nm for probes 3 and 4). Fluorescence from 10 μL of blood was converted to % injected dose per gram (% ID/g) using a standard curve derived from serial dilutions of each probe in 10 μL of mouse blood. Tissue fluorescence was quantified as mean efficiency per pixel and was presented as an arbitrary unit (AU) relative to the signal from each probe in 10 μL of mouse blood.

MMP-12 active form [2] = target: T2, MMP-12 active form (Mus musculus, UniProt P34960); assay: Sponge model of sterile inflammation, fluorescence imaging of explanted sponges; type: in vivo, C57BL/6 mice; design: from tissue; host or cells: subcutaneously implanted polyvinyl alcohol sponges in C57BL/6 mice; details: 60 minutes after intravenous administration, 1 nmol
Description: Sponge model of sterile inflammation: Pieces of polyvinyl alcohol sponge (Ivalon Ear Wick, 0.9 e × 15 mm, New London, CT) were implanted in dorsal subcutaneous pockets of C57BL/6 mice (originally from Jackson Laboratory, Farmington, CT, n = 24) under isoflurane anesthesia, as described. Animals were re-anesthetized at day 1 or 4 after sponge implantation, and the sponges were removed for imaging or embedded in OCT, snap-frozen, and stored at −80 °C for further analysis.
as §2, with “Animals were sacrificed at the indicated time points and various organs were harvested.” left out

MMP-12 active form [3] = target: T2, MMP-12 active form; assay: MMP-12 imaging of carotid aneurysm; type: in vivo; design: from tissue; host or cells: CaCl2-induced aneurysmal left carotid artery of apoE-deficient mice (in vivo imaging and cryostat sections); details: high fat-fed apoE-/- mice, tissues harvested at 60 minutes after intravenous administration
Description: Carotid aneurysm model: Arterial aneurysm was induced over a 4-week period by exposing the left common carotid artery of apolipoprotein E–deficient (apoE^−/−, n = 7) mice (Jackson Laboratory) to calcium chloride, as described. The opposite carotid artery was exposed to normal saline and served as control for imaging studies. Tissues from a previous study (n = 3)[18] supplemented histologic evaluations.
as §2

TACE = TACE (Homo sapiens, UniProt P78536); assay: Metalloprotease inhibition assay (Ki); type: biochemical
human MMPs = assay: Affinity and selectivity profile toward panel of human MMPs; type: biochemical
Description: as §1

T2 sequence (P34960 110-473): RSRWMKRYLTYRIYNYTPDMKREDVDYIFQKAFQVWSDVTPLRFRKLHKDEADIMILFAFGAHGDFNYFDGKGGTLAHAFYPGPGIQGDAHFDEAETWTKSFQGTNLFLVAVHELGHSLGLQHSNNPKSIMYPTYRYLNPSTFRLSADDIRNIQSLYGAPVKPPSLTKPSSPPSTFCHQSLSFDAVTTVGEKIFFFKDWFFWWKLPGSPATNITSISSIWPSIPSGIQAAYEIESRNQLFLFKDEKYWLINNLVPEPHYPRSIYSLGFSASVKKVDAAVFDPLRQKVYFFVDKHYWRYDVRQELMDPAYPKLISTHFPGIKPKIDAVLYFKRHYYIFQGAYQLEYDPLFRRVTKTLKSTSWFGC
TACE, sequence (P78536 215-824): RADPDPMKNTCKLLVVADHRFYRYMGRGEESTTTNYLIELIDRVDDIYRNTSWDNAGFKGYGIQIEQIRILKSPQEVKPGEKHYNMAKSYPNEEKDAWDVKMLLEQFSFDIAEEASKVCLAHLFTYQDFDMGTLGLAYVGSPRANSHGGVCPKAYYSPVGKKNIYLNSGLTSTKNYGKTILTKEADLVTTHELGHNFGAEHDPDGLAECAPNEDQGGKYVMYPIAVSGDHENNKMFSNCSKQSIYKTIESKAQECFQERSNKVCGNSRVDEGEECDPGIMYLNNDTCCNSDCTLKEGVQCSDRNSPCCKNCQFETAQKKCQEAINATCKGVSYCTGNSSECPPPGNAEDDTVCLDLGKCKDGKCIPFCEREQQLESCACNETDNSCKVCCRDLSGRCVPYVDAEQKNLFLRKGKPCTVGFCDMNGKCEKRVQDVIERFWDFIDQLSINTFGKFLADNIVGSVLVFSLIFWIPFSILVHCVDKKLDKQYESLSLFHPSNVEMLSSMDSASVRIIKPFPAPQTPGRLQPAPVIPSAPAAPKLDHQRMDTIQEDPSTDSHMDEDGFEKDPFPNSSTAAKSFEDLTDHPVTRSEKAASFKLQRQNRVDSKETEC

For `CC1(C)C(/C=C/C2=C(Oc3ccc(CCC(=O)NCCCOCCOCCOCCCNC(=O)[C@H](CCC(=O)[O-])NC(=O)[C@H](CCC(=O)O)NC(=O)[C@H](Cc4cc(-c5ccc(-c6cccc(Cl)c6)cc5)no4)CP(=O)(O)c4ccc(Br)cc4)cc3)C(=C/C=C3/N(CCC[N+](C)(C)C)c4ccc(S(=O)(=O)[O-])cc4C3(C)C)/CCC2)=[N+](CCC[N+](C)(C)C)c2ccc(S(=O)(=O)[O-])cc21` [probe 3], the “stability in PBS” value (Stability in PBS) was “fully stable”, the Ki (ADAMTS-5) was over 10 µM and the Ki (hMMP-12) was 0.0034 ± 0.0003 µM. For the same molecule, the “difference in potency towards MMP-12, factor relative to probe 1” value (hMMP-12; relative to probe 1) was 4, the residual blood level [1] was “significantly lower residual blood level” and the “fluorescence signal in explanted sponges” value (MMP-12 active form [2]) was “intense signal”. The “fluorescence signal in aneurysmal left carotid artery” value (MMP-12 active form [3]) was “significantly higher than the signal in the control, contralateral artery” and the Ki (TACE) was 4.61 ± 0.653 µM.
In the case of `CC1(C)C(=CC=C2CCCC(C=CC3=[N+](CCC[N+](C)(C)C)c4ccc(S(=O)(=O)[O-])cc4C3(C)C)=C2Oc2ccc(CCC(=O)NCCCOCCOCCOCCCNC(=O)C(CCC(=O)[O-])NC(=O)C(CCC(=O)O)NC(=O)C(Cc3cc(-c4cccc(Oc5ccccc5)c4)no3)CP(=O)(O)c3ccc(Br)cc3)cc2)N(CCC[N+](C)(C)C)c2ccc(S(=O)(=O)[O-])cc21` (centres unmarked) [probe 4], the “affinity for human MMPs” value (human MMPs) is reported as “no affinity”, the Ki (ADAMTS-5) is reported as over 10 µM and the Ki (hMMP-12) is reported as 4.04 ± 0.67 µM. The “fluorescence signal in explanted sponges” value (MMP-12 active form [2]) was “significantly lower”, the “fluorescence signal in aneurysmal left carotid artery” value (MMP-12 active form [3]) was “significantly lower signal” and the Ki (TACE) was over 25 µM.
